# Earlier results in patent US20070021304A1, “Non-salt glyphosate herbicide composition and method for preparing the same” (Sinon Corporation, priority 2005, published 2007).
# Details: pH 1.9, 20° C.
compound,measurement,value
O=C(O)CNCP(=O)(O)O [Glyphosate],water solubility,approximately 10.5 g/L
